A value given as a limit tells only on which side of the number the result lay.

Test [1] has as its system Plasmodium falciparum. The test is described as follows: ST_JUDE: Plasmodium falciparum 3D7 EC50 (uM) as measured by SYBR green dye. Type of test: functional, organism-based.
The test system of test [2] is Plasmodium falciparum. The test is described as follows: ST_JUDE: Plasmodium falciparum K1 EC50 (uM) as measured by SYBR green dye. Type of test: functional, organism-based.

What is called EC50 is the concentration at which the effect is half-maximal. High values mean lower potency in that assay, low ones higher potency in that assay. In the case of `O=C(Nc1ccccc1-c1ccccc1)C(Cl)(Cl)Cl`, the EC50 in the test on Plasmodium falciparum [1] was 1.56 µM; in the test on Plasmodium falciparum [2], 1.15 µM.
The matching figures for `CC(=O)NC(c1ccccc1)c1cc(Cl)c2cccnc2c1O` (configuration not stated): above 15 µM and above 15 µM.
Consider `CC(=O)c1c(C)n(CCOc2ccc(F)cc2)c2ccccc12`, for which the EC50 in the test on Plasmodium falciparum [1] was above 15 µM; in the test with Plasmodium falciparum [2], 4.88 µM.
For the compound `O=C(N/N=C/c1cc(Cl)cc(Cl)c1O)NC12CC3CC(CC(C3)C1)C2`, the EC50 in the test on Plasmodium falciparum [1] and in the test with Plasmodium falciparum [2] was above 15 µM each time.
As to `CC(C)(C)c1ccc(C(=O)Nc2nc3ccccc3s2)cc1`, the EC50 in the test with Plasmodium falciparum [1] and in the test with Plasmodium falciparum [2] was above 15 µM in each case.
For `COc1ccc(-c2nn(C)c3sc(C(=O)Nc4cccc(Cl)c4)cc23)cc1OC`, the results for the EC50 in the test on Plasmodium falciparum [1] and in the test with Plasmodium falciparum [2] were above 15 µM and 6.94 µM, respectively.
The matching figures for `CCc1c(C)nc(-n2nc(C)cc2NC(=O)c2cccc(OC)c2)nc1O`: above 15 µM and above 15 µM.
Consider `CCN1/C(=C/c2cccc[n+]2C)Sc2ccccc21`, for which the EC50 in the test with Plasmodium falciparum [1] was 4.47 µM; in the test with Plasmodium falciparum [2], above 15 µM.
For `CC(C)c1ccc(CN(Cc2ccco2)C(=O)COc2ccccc2Cl)cc1` the same measures were 7.43 µM and above 15 µM.
For `CC(C)(C)c1ccc(-c2cc(-c3cc(Cl)ccc3O)[nH]n2)cc1` the same measures were 4.23 µM and 1.34 µM.
For `Cc1ccc(-c2nc(C(=O)N(CCC#N)Cc3cccnc3)cs2)cc1F` the same measures were 3.34 µM and 4.68 µM.
As to `COc1ccc(Cl)cc1N(C)C(=O)c1cc2c(s1)-c1ccccc1S(=O)(=O)C2`, the EC50 in the test with Plasmodium falciparum [1] is 1.35 µM; in the test with Plasmodium falciparum [2], 1.78 µM.
For `CCc1ccc(C(O)(CCC(C)C)C(CN2CCOCC2)c2ccccc2)cc1` (configuration not stated) the same measures were 2.45 µM and 1.99 µM.
For `O=C(Nc1cccc(Cl)c1)N1CCn2cccc2C1c1ccc(F)c(F)c1` (configuration not stated) the same measures were 10.3 µM and 6.67 µM.
In the case of `CCCOc1ccc(-c2nonc2NC(=O)c2cccc(C)c2)cc1OCCC`, the results for the EC50 with Plasmodium falciparum [1] and in the test on Plasmodium falciparum [2] were above 15 µM and 1.05 µM, respectively.
For `CCC(=O)NC(c1ccc(Cl)cc1)c1ccc2cccnc2c1O` (configuration not stated) the same measures were 2.05 µM and 1.81 µM.
The matching figures for `O=C(CN1C2=NCCN2c2ccccc21)c1ccc(Cl)cc1Cl`: 3.28 µM and 3.65 µM.
For `CCOc1ccccc1C(=O)NCCc1csc(-c2ccc(OC)cc2)n1` the same measures were above 15 µM and 7.53 µM.
Consider `Cc1cc(N(C)C)nc(Nc2ccc(NS(=O)(=O)c3cccc(Cl)c3)cc2)n1`, for which the EC50 with Plasmodium falciparum [1] is 7.69 µM; with Plasmodium falciparum [2], above 15 µM.
The matching figures for `C#CCOc1ccc(C2C(C#N)=C(N)Oc3c2ccc2ccccc32)cc1OC` (configuration not stated): 0.414 µM and 4.08 µM.
For `Cc1ccc(/C=C2\C(=O)NC(=O)N(c3ccc(Br)cc3)C2=O)cc1[N+](=O)[O-]`, the EC50 was found to be 4.47 µM with Plasmodium falciparum [1] and 5.16 µM in the test on Plasmodium falciparum [2].
With `Cc1ccc(Nc2cc(C)nc(Nc3ccc(NS(=O)(=O)c4ccc(C)cc4)cc3)n2)cc1`, the EC50 with Plasmodium falciparum [1] came to 0.621 µM; with Plasmodium falciparum [2], 7.97 µM.
Take `CCc1ccc(C2C3=C(O)CC(C)(C)CC3=Nc3cc(OC)c(OC)c(OC)c32)cc1` (configuration not stated): the EC50 was above 15 µM with Plasmodium falciparum [1] and 4.85 µM in the test on Plasmodium falciparum [2].
For `CCc1cc2c(=O)c(Oc3ccc(Cl)cc3)coc2cc1OC(C)=O`, the EC50 in the test on Plasmodium falciparum [1] and in the test with Plasmodium falciparum [2] was above 15 µM in each case.
As for `CCCOc1ccc(-c2nonc2NC(=O)c2cccc(OCC)c2)cc1OCCC`, the EC50 in the test with Plasmodium falciparum [1] is above 15 µM; in the test on Plasmodium falciparum [2], 0.444 µM.
The matching figures for `CCC(C)c1ccc(O)c(NC(=O)c2cncc(Br)c2)c1` (configuration not stated): 2.15 µM and 1.59 µM.
The matching figures for `C#CCSc1c(CCCC)cnc2c1c(=O)n(C)c(=O)n2C`: above 15 µM and above 15 µM.
For `CCOc1ccc(NC2=C(NCCO)C(=O)c3ccccc3C2=O)cc1` the same measures were 3.54 µM and 4.88 µM.
For `CCOC(=O)c1c(CNCCN(CC)CC)n(C)c2cc(Br)c(O)cc12`, the figures for the EC50 with Plasmodium falciparum [1] and in the test with Plasmodium falciparum [2] were 2.89 µM and 4.87 µM, respectively.
The matching figures for `COc1ccc(N2CCN(C(=S)Nc3ccccc3Cl)CC2C)cc1` (configuration not stated): 1.4 µM and 3.56 µM.
For `COc1cccc(OCC(=O)NCc2ccccc2)c1` the same measures were above 15 µM and above 15 µM.
`COCc1cc(CN2CCN(c3ccccc3OC)CC2)c(O)c2ncccc12`: the EC50 worked out at 4.19 µM with Plasmodium falciparum [1] and 9.06 µM in the test on Plasmodium falciparum [2].
For `Cc1ccc(Nc2nc(N/N=C/c3ccc(/C=N/Nc4nc(Nc5ccc(C)cc5)nc(N5CCOCC5)n4)cc3)nc(N3CCOCC3)n2)cc1` the same measures were 1.58 µM and 1.43 µM.
The matching figures for `CCCCCC(O)(c1ccc(F)cc1)C(CN1CCOCC1)c1ccc(Cl)cc1` (configuration not stated): 1.83 µM and 0.935 µM.
For `COc1ccc(-c2cc(=O)oc3c4c(ccc23)OCN(Cc2ccc(F)cc2)C4)cc1` the same measures were 5.21 µM and 1.06 µM.
Consider `COc1cc(CNCCc2ccc(Cl)cc2)cc(OC)c1O`, for which the figures for the EC50 in the test on Plasmodium falciparum [1] and in the test on Plasmodium falciparum [2] were 6.89 µM and above 15 µM, respectively.
The matching figures for `Cc1ccc(C)c(NC(=O)CSc2ccc(Cl)cc2)c1`: above 15 µM and above 15 µM.
The matching figures for `O=C(c1cccc(Cl)c1)N(Cc1cccnc1)c1nc2c(F)cccc2s1`: above 15 µM and 6.68 µM.
The matching figures for `CCO/C(O)=C1\C(C)=NC2=C(C(=O)CC(c3ccc(Cl)cc3)C2)C1c1ccc(O)c(OCC)c1` (configuration not stated): 0.881 µM and 1.47 µM.
`CCCCCCn1c(=N)n(CC(O)COc2cccc(C)c2)c2ccccc21` (configuration not stated): the EC50 was 1.97 µM with Plasmodium falciparum [1] and 0.725 µM in the test on Plasmodium falciparum [2].
`COc1ccccc1CNC(=O)C1c2ccccc2C(=O)N(CC(C)C)C1c1cccs1` (configuration not stated): the EC50 was determined as 3.16 µM with Plasmodium falciparum [1] and 3.7 µM in the test with Plasmodium falciparum [2].
With `CCN1CCN(c2cc(C)c3cc(NC(=O)/C=C/c4ccccc4OC(C)C)ccc3n2)CC1`, the EC50 came out at 1.06 µM with Plasmodium falciparum [1] and 2.98 µM in the test on Plasmodium falciparum [2].
In the case of `COc1ccc2nc(C)cc(Nc3ccc(N4CCOCC4)cc3)c2c1`, the EC50 in the test with Plasmodium falciparum [1] is 4.69 µM; in the test with Plasmodium falciparum [2], above 15 µM.
The matching figures for `CCCc1cc(O)nc(-n2nc(C)cc2NC(=O)c2cccc(C)c2)n1`: 2.22 µM and above 15 µM.
Take `CCCCOc1ccc(N2C(N)=NC(N)=NC2(C)C)cc1`: the values for the EC50 in the test on Plasmodium falciparum [1] and in the test on Plasmodium falciparum [2] were 2.79 µM and above 15 µM, respectively.
For the compound `COc1ccc2c(c1)C(=NN=C(N)N)c1cc(OC)ccc1-2`, the EC50 with Plasmodium falciparum [1] was 0.506 µM; in the test with Plasmodium falciparum [2], 1.01 µM.
For `CCN1CCN(c2cc(C)c3cc(NC(=S)NCCCN4CCN(c5cccc(Cl)c5)CC4)ccc3n2)CC1` the same measures were 2.24 µM and 4.24 µM.
`CC(NC(=S)Nc1cccc([N+](=O)[O-])c1)c1ccc(C(C)(C)C)cc1` (configuration not stated): the EC50 in the test on Plasmodium falciparum [1] is above 15 µM; in the test with Plasmodium falciparum [2] it was 6.22 µM.
The matching figures for `COc1ccccc1C1CC(c2ccccc2)=NN1C(=O)c1ccccc1` (configuration not stated): 0.855 µM and 4.32 µM.
For `COc1cccc(C(=O)NCc2nnc(S)n2-c2ccc(Cl)c(Cl)c2)c1` the same measures were 0.0928 µM and 0.0463 µM.
Take `CN(C)CCn1c(=N)n(CC(O)c2ccc(Cl)c(Cl)c2)c2ccccc21` (configuration not stated): the values for the EC50 in the test on Plasmodium falciparum [1] and with Plasmodium falciparum [2] were 0.638 µM and 3.01 µM, respectively.
